Experimental data from US9567329B2, “High penetration prodrug compositions of 1H-imidazo[4,5-c]quinolin-4-amines and 1H-imidazo[4,5-c]quinolin-4-amine-related compounds and uses thereof” (Techfields Pharma Co., Ltd, priority 2007, dated 2017).

Columns and labels:
Assay type in all cases: in vivo
[1] = system: herpes simplex virus Type II; assay: Anti-Herpes activity, treated for 3 days before HSV infection; conditions: guinea pigs
Experimental: (§1) The evaluation of anti-Herpes activity of these prodrugs was carried out using the method described by Kern, et al. [Antimicrob. Agents Chemother. 14, 817, (1978)]. In each experiment, female guinea pigs (n=10) were anesthetized. […] Virus replication was monitored by determining the amount of virus recovered with vaginal swabs taken on day 7 after infection. […] The percent Lesion Inhibition was calculated as follows: 100-[(Sum of maximum lesion scores of treated group divided by the Sum of the scores of infected control)×100] (Table 5).

[2] = system: herpes simplex virus Type I; assay: as above; conditions: guinea pigs
Experimental: as §1

[3] = system: herpes simplex virus Type II; assay: Anti-Herpes activity, treated for 5 days, first treatment just after HSV infection; conditions: guinea pigs
Experimental: (§2) The evaluation of anti-Herpes activity of these prodrugs was carried out using the method described by Kern, et al. [Antimicrob. Agents Chemother. 14, 817, (1978)].
(§3) In the second experiment, female guinea pigs (n=10) were anesthetized. Herpes simplex virus (Type I or Type II, about 10^5 plaque forming units were used) was applied intravaginally to the guinea pigs using a cotton swab. […] Virus replication was monitored by determining the amount of virus recovered with vaginal swabs taken on day 7 after infection. External lesions were scored daily for ten days using the following scale: 0, no lesion; 1, redness and swelling; 2, a few small vesicles; 3, several large vesicles; 4, large ulcers and necrosis; and 5, paralysis. The percent Lesion Inhibition was calculated as follows: 100−[(Sum of maximum lesion scores of treated group divided by the Sum of the scores of infected control)×100] (Table 6).

[4] = system: herpes simplex virus Type I; assay: as above; conditions: guinea pigs
Experimental: as §2, §3

[5] = system: herpes simplex virus Type II; assay: Anti-Herpes activity, treated for 5 days, first treatment 5 days after HSV infection; conditions: guinea pigs
Experimental: as §2
(§4) In the third experiment, female guinea pigs (n=10) were anesthetized. The guinea pigs were then infected with herpes simplex virus (type I or Type II, about 10^5 plaque forming units were used) intravaginally using a cotton swab. […] External lesions were scored daily for ten days using the following scale: 0, no lesion; 1, redness and swelling; 2, a few small vesicles; 3, several large vesicles; 4, large ulcers and necrosis; and 5, paralysis. The percent Lesion Inhibition was calculated as follows: 100−[(Sum of maximum lesion scores of treated group divided by the Sum of the scores of infected control)×100] (Table 7).

[6] = system: herpes simplex virus Type I; assay: as above; conditions: guinea pigs
Experimental: as §2, §4

interferon production = assay: Interferon inducing activity in guinea pigs (serum protection of fibroblasts from mengovirus); conditions: serum 18 hours after treatment
[7] = 0.5 mg/kg once per day for 3 days before HSV infection
[8] = 1.5 mg/kg once per day for 3 days before HSV infection
[9] = 4.5 mg/kg once per day for 3 days before HSV infection
[10] = 0.5 mg/kg once per day for 5 days
[11] = 1.5 mg/kg once per day for 5 days
[12] = 4.5 mg/kg once per day for 5 days

CCCCCCn1cnc2c(N)nc3ccccc3c21.Cl [1-hexyl-1H-imidazo[4,5-c]quinolin-4-amine hydrochloride, reference compound]
% Lesion inhibition of the parent drug, intravaginal, Herpes type II [1, 7]: 5% | % Lesion inhibition of the parent drug, transdermal, Herpes type II [1, 7]: 2% | % Lesion inhibition of the parent drug, intravaginal, Herpes type II [1, 8]: 18% | % Lesion inhibition of the parent drug, transdermal, Herpes type II [1, 8]: 3% | % Lesion inhibition of the parent drug, intravaginal, Herpes type II [1, 9]: 81% | % Lesion inhibition of the parent drug, transdermal, Herpes type II [1, 9]: 45% | % Lesion inhibition of the parent drug, intravaginal, Herpes type I [2, 7]: 4% | % Lesion inhibition of the parent drug, transdermal, Herpes type I [2, 7]: 2% | % Lesion inhibition of the parent drug, intravaginal, Herpes type I [2, 8]: 16% | % Lesion inhibition of the parent drug, transdermal, Herpes type I [2, 8]: 3% | % Lesion inhibition of the parent drug, intravaginal, Herpes type I [2, 9]: 80% | % Lesion inhibition of the parent drug, transdermal, Herpes type I [2, 9]: 42% | % Lesion inhibition of the parent drug, intravaginal, Herpes type II [3, 10]: 2% | % Lesion inhibition of the parent drug, transdermal, Herpes type II [3, 10]: 2% | % Lesion inhibition of the parent drug, intravaginal, Herpes type II [3, 11]: 11% | % Lesion inhibition of the parent drug, transdermal, Herpes type II [3, 11]: 6% | % Lesion inhibition of the parent drug, intravaginal, Herpes type II [3, 12]: 71% | % Lesion inhibition of the parent drug, transdermal, Herpes type II [3, 12]: 41% | % Lesion inhibition of the parent drug, intravaginal, Herpes type I [4, 10]: 2% | % Lesion inhibition of the parent drug, transdermal, Herpes type I [4, 10]: 2% | % Lesion inhibition of the parent drug, intravaginal, Herpes type I [4, 11]: 11% | % Lesion inhibition of the parent drug, transdermal, Herpes type I [4, 11]: 5% | % Lesion inhibition of the parent drug, intravaginal, Herpes type I [4, 12]: 68% | % Lesion inhibition of the parent drug, transdermal, Herpes type I [4, 12]: 43% | % Lesion inhibition of the parent drug, intravaginal, Herpes type II [5, 10]: 2% | % Lesion inhibition of the parent drug, transdermal, Herpes type II [5, 10]: 2% | % Lesion inhibition of the parent drug, intravaginal, Herpes type II [5, 11]: 2% | % Lesion inhibition of the parent drug, transdermal, Herpes type II [5, 11]: 2% | % Lesion inhibition of the parent drug, intravaginal, Herpes type II [5, 12]: 37% | % Lesion inhibition of the parent drug, transdermal, Herpes type II [5, 12]: 21% | % Lesion inhibition of the parent drug, intravaginal, Herpes type I [6, 10]: 2% | % Lesion inhibition of the parent drug, transdermal, Herpes type I [6, 10]: 2% | % Lesion inhibition of the parent drug, intravaginal, Herpes type I [6, 11]: 2% | % Lesion inhibition of the parent drug, transdermal, Herpes type I [6, 11]: 2% | % Lesion inhibition of the parent drug, intravaginal, Herpes type I [6, 12]: 35% | % Lesion inhibition of the parent drug, transdermal, Herpes type I [6, 12]: 18% | Interferon level of the parent drug, intravaginal (interferon production; 0.5 mg/kg once): 286 activity/ml | Interferon level of the parent drug, transdermal (interferon production; 0.5 mg/kg once): 178 activity/ml | Interferon level of the parent drug, intravaginal (interferon production; 1.5 mg/kg once): 1,562 activity/ml | Interferon level of the parent drug, transdermal (interferon production; 1.5 mg/kg once): 565 activity/ml | Interferon level of the parent drug, intravaginal (interferon production; 4.5 mg/kg once): 24,786 activity/ml | Interferon level of the parent drug, transdermal (interferon production; 4.5 mg/kg once): 1,945 activity/ml
